Assay results reported in patent publication US7927613B2, “Pharmaceutical co-crystal compositions” (University of South Florida, priority 2002, dated 2011).

Experiments:
[1] = Dissolution profile; format: physicochemical; conditions: vs. itraconazole free base (FIG. 28)
Text: In another aspect of the present invention, the dissolution profile of the API is modulated whereby the aqueous dissolution rate or the dissolution rate in simulated gastric fluid or in simulated intestinal fluid, or in a solvent or plurality of solvents is increased. Dissolution rate is the rate at which API solids dissolve in a dissolution medium. For APIs whose absorption rates are faster than the dissolution rates (e.g., steroids), the rate-limiting step in the absorption process is often the dissolution rate. Because of a limited residence time at the absorption site, APIs that are not dissolved before they are removed from intestinal absorption site are considered useless. Therefore, the rate of dissolution has a major impact on the performance of APIs that are poorly soluble. Because of this factor, the dissolution rate of APIs in solid dosage forms is an important, routine, quality control parameter used in the API manufacturing process. […] For rapid API absorption, Cs−C is approximately equal to Cs The dissolution rate of APIs may be measured by conventional means known in the art. […] Conditions under which the dissolution rate is measured is the same as discussed above The increase in dissolution may be further specified by the time the composition remains supersaturated before reaching equilibrium solubility.

melting point [°C] | dissolution profile [1] | Molecule
173 to 174 |  | CCOc1ccc(NC(N)=O)cc1 [4-ethoxyphenyl urea]
 | modulated dissolution profile | itraconazole and malic acid [itraconazole:malic acid]
